Assay: Human HepG2 cell viability assay in 384 well format
Format: toxicity, cell-based
Design: dose 125 nL, time 70.5 hour; concentration not given beside the values
Settings: HepG2 cells, read-out: Inhibition

First: O=C(NCC[S+]([O-])c1ccccc1)c1ccc2[nH]c(=O)[nH]c2c1 (stereo unspecified)
Second: O=C(NCC(O)(c1ccco1)C1CC1)c1ccccc1F (stereo unspecified)
The cytotoxicity at 70.5 h of the first is higher: -6.4% for the first, -14.8% for the second.

First: Cc1nc(C)n(CC2CCCN2Cc2nnc(-c3ccco3)o2)n1 (stereo unspecified)
Second: COc1ccc(-c2noc(CN3CCCC3Cn3cccn3)n2)cc1 (stereo unspecified)
The cytotoxicity at 70.5 h of the first is higher: 11.1% for the first, -1.01% for the second.

Compared with `CS(=O)(=O)c1ccc(CNC2CCCN(c3cccnn3)C2)cc1` (stereo unspecified), `CS(=O)(=O)CCn1ccc(NCc2ccc(C#N)cc2)n1` is higher in cytotoxicity at 70.5 h: -6.92% for the first, -0.713% for the second.

Compared with `Cc1[nH]ncc1C(=O)N1CCN(CC(O)C(C)(C)C)CC1` (stereo unspecified), `CN(C)c1ncccc1C(=O)N1CCN(C2=NCC(C)(C)S2)CC1` is higher in cytotoxicity at 70.5 h: -14.9% for the first, 6.73% for the second.

Going from `CC(C)[C@H]1CN(C(=O)CC2CCC2)C[C@@H]1N(C)C` to `CC(C)n1cnnc1CN(C)C(=O)C1CCCN(CC(N)=O)C1` (stereo unspecified), the cytotoxicity at 70.5 h falls from 18.9% to -10.5%.

Going from `O=S(=O)(N1CCCC1)N(Cc1ccccc1)CC1CCCO1` (stereo unspecified) to `COc1ccccc1S(=O)(=O)N1CCC2(CC1)OCCCC2O` (stereo unspecified), the cytotoxicity at 70.5 h rises from -7.82% to -6.84%.

Going from `COc1cc(C(=O)NCCc2ccc(Cl)cc2)on1` to `COCCCNC(=O)Nc1cccc(Cl)c1-n1cccn1`, the cytotoxicity at 70.5 h falls from 0.265% to -3.36%.

Compared with `CCCC(=O)N1CCN(Cc2cc(-c3ccncc3)nn2C)CC1`, `O=C(Cc1ccsc1)N1CCc2ncc(Cn3cccn3)n2CC1` is lower in cytotoxicity at 70.5 h: 0.205% for the first, -13.8% for the second.

First: CC(Cn1cc(Br)cn1)C(=O)Nc1ccc(Br)cn1 (stereo unspecified)
Second: COc1ccccc1CNC(=O)Cn1ncc2c1c(C)nn2C
The cytotoxicity at 70.5 h of the first is higher: 3.47% for the first, 0.128% for the second.

Compared with `CCO[C@@H]1CC[C@H]2[C@H]1OCCN2S(=O)(=O)c1cn(C)cn1`, `CCc1ncc(C(=O)N2CC[C@@H]3CC[C@H](C2)N3C)cn1` is lower in cytotoxicity at 70.5 h: -1.5% for the first, -14% for the second.

First: CCc1ccccc1NC(=O)C1CN(C(C)=O)C1
Second: CN1C[C@@H](O)[C@]2(CCN(C(=O)OCc3ccccc3)C2)S1(=O)=O
The cytotoxicity at 70.5 h of the first is higher: 11.2% for the first, -10.5% for the second.

Compared with `CC1CN(C(=O)Nc2cc(C(F)(F)F)c[nH]c2=O)CCO1` (stereo unspecified), `CCC1CN(C(=O)NCc2cccnc2-n2cccn2)CCO1` (stereo unspecified) is higher in cytotoxicity at 70.5 h: -8.88% for the first, -5.61% for the second.

Going from `CC(C)c1nc2c(n1C)CCN(CCCOc1ccc(C#N)cc1)C2` to `COCc1nn(C(C)C)c2c1CCN(Cc1ccc(C)o1)C2`, the cytotoxicity at 70.5 h falls from 2.99% to -4.09%.

Going from `Cc1ccc(CN2CCN(C(=O)C3CCC3)[C@@H]3CS(=O)(=O)C[C@@H]32)cc1C` to `Cc1cnn(CCC(=O)N2CCN(C(=O)C(C)C)[C@@H]3CS(=O)(=O)C[C@@H]32)c1`, the cytotoxicity at 70.5 h falls from -0.626% to -9.72%.

Compared with `Cc1ncc(CN(C)C(=O)Nc2ccc(CN3CCOC3=O)cc2)s1`, `CC(C)CC(=O)N1CC(=O)c2sc(NCCc3ccccc3)nc2C1` is higher in cytotoxicity at 70.5 h: -7.05% for the first, 0.452% for the second.

First: O=C(Nc1nnc[nH]1)C(c1cccc(F)c1)N1CCOCC1 (stereo unspecified)
Second: CCc1cc(-c2ccnc3c2ccn3C)nc(N2CCOCC2)n1
The cytotoxicity at 70.5 h of the first is lower: -1.33% for the first, 1.11% for the second.

First: O=C(NC1CC(=O)N(C2CC2)C1)c1cccs1 (stereo unspecified)
Second: O=C(NCCc1nncn1C1CC1)C1SCCc2sccc21 (stereo unspecified)
The cytotoxicity at 70.5 h of the first is higher: 11.1% for the first, -8.14% for the second.

Compared with `COc1cccc(OCC2CCCN(C(=O)c3ncoc3C3CC3)C2)c1` (stereo unspecified), `CCCc1n[nH]cc1C(=O)NCC1COc2cc(OC)ccc2C1` (stereo unspecified) is higher in cytotoxicity at 70.5 h: -11.7% for the first, 14.2% for the second.

Going from `CCc1nc(N)sc1C(=O)N1CCC(c2cc(O)nc(C)n2)CC1` to `CC(=O)N1CCC(c2c(CN(C)C)cnc3cc(C)nn23)CC1`, the cytotoxicity at 70.5 h falls from 20.6% to 15.7%.

First: CNC(=O)C(C)(C)CNC(=O)Nc1ccncc1C
Second: CCC(=O)NCC(=O)Nc1ncc(I)cc1C
The cytotoxicity at 70.5 h of the first is lower: -9.08% for the first, 0.64% for the second.

First: O=C1NCCCc2c1oc1ccc(O)c(CN3CCOCC3)c21
Second: O=C1CCCN1Cc1nnc2n1CCN(Cc1ccoc1)CC2
The cytotoxicity at 70.5 h of the first is higher: 30.3% for the first, 30% for the second.

Compared with `O=C(NC1CCc2ccccc2C1)N1CCN(C(=O)C2CCC2)CC1` (stereo unspecified), `Cc1nc2c(c(=O)n1C)CN(C(=O)C1CCCN(C3CCCC3)C1)C2` (stereo unspecified) is higher in cytotoxicity at 70.5 h: -5.12% for the first, 6.1% for the second.

First: CN(Cc1nccn1C)C1CCN(CCc2ccccn2)CC1
Second: Cn1c(CCN2CCN(CCc3ccccc3)CC2)nc2ccccc21
The cytotoxicity at 70.5 h of the first is higher: 0.568% for the first, -6.23% for the second.

Compared with `CC(C)NC(=O)NCCCc1cccc(F)c1`, `CCC(NC(=O)c1cc(CC(C)C)nn1C)c1cccc(C)n1` (stereo unspecified) is higher in cytotoxicity at 70.5 h: 0.142% for the first, 8.39% for the second.

Compared with `CCC(C)(C)NC(=O)COC(=O)c1cc(C)ccc1NC(=O)N(C)C`, `Cc1cc(NC(=O)C(C)Nc2cccc(COCc3ccco3)c2)no1` (stereo unspecified) is lower in cytotoxicity at 70.5 h: -7.98% for the first, -13.8% for the second.

Compared with `CC1CCCN(CCNC(=O)c2ccn(-c3ccc(F)cc3)n2)C1` (stereo unspecified), `CCn1cc(CN2CCCN(C(=O)c3ccoc3)CC2)cn1` is higher in cytotoxicity at 70.5 h: -0.389% for the first, 9.04% for the second.

Going from `CC(C)c1noc(CCCC(=O)NC(C)c2nnc3n2CCC3)n1` (stereo unspecified) to `CC(C)(C)c1nnc(NCC(=O)N2CCc3sccc3C2)s1`, the cytotoxicity at 70.5 h falls from -4.68% to -10.5%.

Compared with `c1ccc(SCCN2CCN(CCn3cncn3)CC2)cc1`, `CCC(C)Oc1cc(C(=O)Nc2nccs2)ccn1` (stereo unspecified) is higher in cytotoxicity at 70.5 h: -22.3% for the first, 0.776% for the second.
